Experimental data: patent US11420958B2, “Aryl and heteroaryl substituted indole compounds” (BRISTOL-MYERS SQUIBB COMPANY, priority 2017, dated 2022)

Columns and labels:
Assay type in all cases: cell-based
human TLR9 = human TLR9 (Homo sapiens (Human), UniProt Q9NR96); assay: TLR9 inhibition reporter assay (HEK-Blue, SEAP); conditions: HEK-Blue cells overexpressing human TLR9, ODN2006 5 nM stimulation
Method: (§1) TLR7/8/9 Inhibition Reporter Assays
(§2) HEK-Blue™-cells (Invivogen) overexpressing human TLR7, TLR8 or TLR9 receptors were used for screening inhibitors of these receptors using an inducible SEAP (secreted embryonic alkaline phosphatase) reporter gene under the control of the IFN-β minimal promoter fused to five NF-κc Band AP-1-binding sites. Briefly, cells are seeded into Greiner 384 well plates (15000 cells per well for TLR7, 20,000 for TLR8 and 25,000 for TLR9) and then treated with test compounds in DMSO to yield a final dose response concentration range of 0.05 nM-50 μM. After a 30 minute compound pre-treatment at room temperature, the cells are then stimulated with a TLR7 ligand (gardiquimod at a final concentration of 7.5 μM), TLR8 ligand (R848 at a final concentration of 15.9 μM) or TLR9 ligand (ODN2006 at final concentration of 5 nM) to activate NF-κB and AP-1 which induce the production of SEAP. After a 22 hour incubation at 37° C., 5% CO2, SEAP levels are determined with the addition of HEK-Bue™ Detection reagent (Invivogen), a cell culture medium that allows for detection of SEAP, according to manufacturer's specifications. The percent inhibition is determined as the % reduction in the HEK-Blue signal present in wells treated with agonist plus DMSO alone compared to wells treated with a known inhibitor.

human TLR8 = human TLR8 (Homo sapiens (Human), UniProt Q9NR97); assay: TLR8 inhibition reporter assay (HEK-Blue, SEAP); conditions: HEK-Blue cells overexpressing human TLR8, R848 15.9 μM stimulation
Sequence of human TLR8 (Q9NR97 27-1041): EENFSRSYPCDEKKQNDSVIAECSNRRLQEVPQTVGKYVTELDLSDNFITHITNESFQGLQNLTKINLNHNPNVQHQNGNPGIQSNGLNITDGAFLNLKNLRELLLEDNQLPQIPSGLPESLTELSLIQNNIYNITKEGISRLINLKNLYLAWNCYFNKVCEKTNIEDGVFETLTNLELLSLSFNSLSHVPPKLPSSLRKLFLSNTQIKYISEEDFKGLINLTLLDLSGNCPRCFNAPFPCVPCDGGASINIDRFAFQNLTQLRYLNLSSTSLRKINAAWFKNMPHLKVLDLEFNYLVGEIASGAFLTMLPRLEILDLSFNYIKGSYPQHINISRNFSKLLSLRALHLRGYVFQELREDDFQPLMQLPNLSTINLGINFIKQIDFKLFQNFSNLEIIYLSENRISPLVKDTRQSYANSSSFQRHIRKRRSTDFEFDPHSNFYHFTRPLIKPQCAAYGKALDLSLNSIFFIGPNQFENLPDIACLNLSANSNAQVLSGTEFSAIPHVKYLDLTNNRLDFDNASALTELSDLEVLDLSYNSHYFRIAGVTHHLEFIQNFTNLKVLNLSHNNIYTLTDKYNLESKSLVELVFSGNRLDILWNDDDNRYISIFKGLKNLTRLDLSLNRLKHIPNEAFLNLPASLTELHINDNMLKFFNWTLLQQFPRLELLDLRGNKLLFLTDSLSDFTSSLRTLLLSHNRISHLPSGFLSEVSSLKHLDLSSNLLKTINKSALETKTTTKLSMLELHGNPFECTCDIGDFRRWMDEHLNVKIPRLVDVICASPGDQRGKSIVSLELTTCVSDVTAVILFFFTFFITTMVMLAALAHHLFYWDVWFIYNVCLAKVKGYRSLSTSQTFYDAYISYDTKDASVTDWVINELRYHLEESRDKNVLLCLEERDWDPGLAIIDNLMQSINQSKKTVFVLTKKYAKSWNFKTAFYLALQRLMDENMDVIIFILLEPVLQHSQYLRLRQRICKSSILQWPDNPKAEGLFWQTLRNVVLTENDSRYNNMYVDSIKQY
Method: as §1, §2

human TLR7 = human TLR7 (Homo sapiens (Human), UniProt Q9NYK1); assay: TLR7 inhibition reporter assay (HEK-Blue, SEAP); conditions: HEK-Blue cells overexpressing human TLR7, gardiquimod 7.5 μM stimulation
Sequence of human TLR7 (Q9NYK1 27-1049): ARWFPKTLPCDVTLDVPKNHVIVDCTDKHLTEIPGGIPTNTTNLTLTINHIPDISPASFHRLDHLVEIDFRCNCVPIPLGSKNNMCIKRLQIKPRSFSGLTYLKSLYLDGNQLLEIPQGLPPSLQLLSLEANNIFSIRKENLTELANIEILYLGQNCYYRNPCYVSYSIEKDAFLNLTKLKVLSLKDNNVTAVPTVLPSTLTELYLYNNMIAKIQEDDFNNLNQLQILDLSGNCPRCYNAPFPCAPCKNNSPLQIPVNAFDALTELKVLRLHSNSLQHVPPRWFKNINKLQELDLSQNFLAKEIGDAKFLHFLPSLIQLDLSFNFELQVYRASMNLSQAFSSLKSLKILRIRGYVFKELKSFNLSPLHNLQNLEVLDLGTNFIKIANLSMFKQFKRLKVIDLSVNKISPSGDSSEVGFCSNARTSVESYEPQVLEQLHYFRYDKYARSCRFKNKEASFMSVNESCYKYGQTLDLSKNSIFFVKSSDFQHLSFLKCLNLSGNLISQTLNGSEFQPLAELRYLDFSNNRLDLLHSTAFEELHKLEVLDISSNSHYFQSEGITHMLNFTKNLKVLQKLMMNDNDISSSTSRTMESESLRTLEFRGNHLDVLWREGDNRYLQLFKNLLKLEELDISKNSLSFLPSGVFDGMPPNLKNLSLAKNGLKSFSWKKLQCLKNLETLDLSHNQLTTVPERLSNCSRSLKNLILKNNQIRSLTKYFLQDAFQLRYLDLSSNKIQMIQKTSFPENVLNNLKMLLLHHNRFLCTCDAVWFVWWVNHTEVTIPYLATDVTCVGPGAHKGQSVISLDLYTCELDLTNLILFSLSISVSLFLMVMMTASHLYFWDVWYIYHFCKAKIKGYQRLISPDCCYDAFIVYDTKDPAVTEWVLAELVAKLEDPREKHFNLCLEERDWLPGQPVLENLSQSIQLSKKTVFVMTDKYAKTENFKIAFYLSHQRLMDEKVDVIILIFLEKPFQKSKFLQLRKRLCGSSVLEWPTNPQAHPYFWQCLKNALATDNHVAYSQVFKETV
Method: as §1, §2

Sequence of human TLR9 (Q9NR96 26-1032): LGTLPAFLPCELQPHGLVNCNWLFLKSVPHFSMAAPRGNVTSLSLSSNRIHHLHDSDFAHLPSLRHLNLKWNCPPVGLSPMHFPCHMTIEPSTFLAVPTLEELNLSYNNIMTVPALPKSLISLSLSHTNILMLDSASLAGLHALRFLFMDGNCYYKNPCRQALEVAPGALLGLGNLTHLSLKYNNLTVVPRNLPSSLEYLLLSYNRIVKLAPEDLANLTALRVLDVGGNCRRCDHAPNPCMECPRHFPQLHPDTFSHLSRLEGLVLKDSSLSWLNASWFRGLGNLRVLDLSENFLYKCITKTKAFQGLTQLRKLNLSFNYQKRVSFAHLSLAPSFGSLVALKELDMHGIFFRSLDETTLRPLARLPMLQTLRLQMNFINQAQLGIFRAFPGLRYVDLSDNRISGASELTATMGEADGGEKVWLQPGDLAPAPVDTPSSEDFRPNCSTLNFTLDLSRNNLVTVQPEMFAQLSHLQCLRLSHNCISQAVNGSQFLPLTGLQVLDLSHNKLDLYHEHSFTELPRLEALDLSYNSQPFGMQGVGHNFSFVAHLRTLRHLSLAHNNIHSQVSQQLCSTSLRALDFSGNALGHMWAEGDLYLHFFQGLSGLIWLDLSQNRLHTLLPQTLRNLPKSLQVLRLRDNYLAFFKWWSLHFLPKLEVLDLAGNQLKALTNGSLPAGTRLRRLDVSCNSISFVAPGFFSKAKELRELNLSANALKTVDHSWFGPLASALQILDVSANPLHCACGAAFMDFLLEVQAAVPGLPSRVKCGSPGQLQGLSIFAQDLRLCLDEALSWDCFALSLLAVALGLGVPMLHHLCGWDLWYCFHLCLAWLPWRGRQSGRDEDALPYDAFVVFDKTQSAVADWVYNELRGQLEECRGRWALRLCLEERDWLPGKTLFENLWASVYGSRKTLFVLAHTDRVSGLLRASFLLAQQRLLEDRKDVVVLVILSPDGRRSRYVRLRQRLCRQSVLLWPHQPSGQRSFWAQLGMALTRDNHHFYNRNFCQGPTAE

SMILES | IC50 (human TLR9) [nM] | IC50 (human TLR8) [nM] | IC50 (human TLR7) [nM]
COc1ccc(-c2[nH]c3ccc(-c4cccc(C(=O)N5CCN(C6CCN(C)CC6)CC5)c4)cc3c2CC(F)(F)F)cc1OC [Example 37, (3-(2-(3,4-dimethoxyphenyl)-3-(2,2,2-trifluoroethyl)-1H-indol-5-yl)phenyl)(4-(1-methylpiperidin-4-yl)piperazin-1-yl)methanone] | 2320 | 139 | 405
CCc1c(-c2ccc(OC)c(OC)c2)[nH]c2ccc(-c3nnc(C(=O)N(C)C)o3)cc12 [Example 38, 5-(2-(3,4-dimethoxyphenyl)-3-ethyl-1H-indol-5-yl)-N,N-dimethyl-1,3,4-oxadiazole-2-carboxamide] | > 50000 | 151 | 1030
CCc1c(-c2ccc(OC)c(OC)c2)[nH]c2ccc(-c3nnc(C(=O)NC4CCN(C(C)C)CC4)o3)cc12 [Example 39, 5-(2-(3,4-dimethoxyphenyl)-3-ethyl-1H-indol-5-yl)-N-(1-isopropylpiperidin-4-yl)-1,3,4-oxadiazole-2-carboxamide] | 433 | 7.9 | 93
CCc1c(-c2ccc(OC)c(OC)c2)[nH]c2ccc(-c3nnc(C(=O)N4CC5CNCC5C4)o3)cc12 (stereo not drawn) [Example 40, (5-(2-(3,4-dimethoxyphenyl)-3-ethyl-1H-indol-5-yl)-1,3,4-oxadiazol-2-yl)(hexahydropyrrolo[3,4-c]pyrrol-2(1H)-yl)methanone] | 325 | 18 | 154
COc1ccc(-c2[nH]c3ccc(-c4cccc(C(=O)N5CC6CNCC6C5)c4)cc3c2CC(F)(F)F)cc1OC (stereo not drawn) [Example 42, (3-(2-(3,4-dimethoxyphenyl)-3-(2,2,2-trifluoroethyl)-1H-indol-5-yl)phenyl)(hexahydropyrrolo[3,4-c]pyrrol-2(1H)-yl)methanone] | 710 | 27 | 448
COc1ccc(-c2[nH]c3ccc(-c4nnc(CCN(C)C)o4)cc3c2C(C)C)cc1OC [Example 43, 2-(5-(2-(3,4-dimethoxyphenyl)-3-isopropyl-1H-indol-5-yl)-1,3,4-oxadiazol-2-yl)-N,N-dimethylethan-1-amine] | 1460 | 2 | 40
COc1ccc(-c2[nH]c3ccc(-c4nnc(Cc5c[nH]cn5)o4)cc3c2C(C)C)cc1OC [Example 45, 2-((1H-imidazol-4-yl)methyl)-5-(2-(3,4-dimethoxyphenyl)-3-isopropyl-1H-indol-5-yl)-1,3,4-oxadiazole] | > 50000 | 16 | 154
COc1ccc(-c2[nH]c3ccc(-c4nnc(C5CCNC5)o4)cc3c2C(C)C)cc1OC (stereo not drawn) [Example 48, 2-(2-(3,4-dimethoxyphenyl)-3-isopropyl-1H-indol-5-yl)-5-(pyrrolidin-3-yl)-1,3,4-oxadiazole] | 2330 | 11 | 34
CN[C@@H](C)c1nnc(-c2ccc3[nH]c(-c4ccc(OC)c(OC)c4)c(C(C)C)c3c2)o1 [Example 49, (S)-1-(5-(2-(3,4-dimethoxyphenyl)-3-isopropyl-1H-indol-5-yl)-1,3,4-oxadiazol-2-yl)-N-methylethan-1-amine] | 11500 | 11 | 169
COc1ccc(-c2[nH]c3ccc(-c4nnc(C[C@@H]5CCCN5)o4)cc3c2C(C)C)cc1OC [Example 51, (S)-2-(2-(3,4-dimethoxyphenyl)-3-isopropyl-1H-indol-5-yl)-5-(pyrrolidin-2-ylmethyl)-1,3,4-oxadiazole] | 1070 | 7.7 | 60
COc1ccc(-c2[nH]c3ccc(-c4nnc([C@H]5CCCNC5)o4)cc3c2C(C)C)cc1OC [Example 52, (S)-2-(2-(3,4-dimethoxyphenyl)-3-isopropyl-1H-indol-5-yl)-5-(piperidin-3-yl)-1,3,4-oxadiazole] | 770 | 6 | 26
COc1ccc(-c2[nH]c3ccc(-c4nnc(C5CNC5)o4)cc3c2C(C)C)cc1OC [Example 53, 2-(azetidin-3-yl)-5-(2-(3,4-dimethoxyphenyl)-3-isopropyl-1H-indol-5-yl)-1,3,4-oxadiazole] | 3010 | 78 | 381
Cc1cc(-c2[nH]c3ccc(-c4nnc(C(=O)NC5CCN(C(C)C)CC5)o4)cc3c2C(C)C)ccn1 [Example 58, 5-(3-isopropyl-2-(2-methylpyridin-4-yl)-1H-indol-5-yl)-N-(1-isopropylpiperidin-4-yl)-1,3,4-oxadiazole-2-carboxamide] | 303 | 3.8 | 50
COc1ccc(-c2[nH]c3ccc(-c4nnc(C(=O)NC5CCN(C(C)C)CC5)o4)cc3c2C(C)C)cc1OC [Example 59, 5-(2-(3,4-dimethoxyphenyl)-3-isopropyl-1H-indol-5-yl)-N-(1-isopropylpiperidin-4-yl)-1,3,4-oxadiazole-2-carboxamide] | 936 | 6.2 | 55
Cc1cc(-c2[nH]c3ccc(-c4nnc(C(=O)N5CC6CNCC6C5)o4)cc3c2C(C)C)ccn1 (stereo not drawn) [Example 60, (hexahydropyrrolo[3,4-c]pyrrol-2(1H)-yl)(5-(3-isopropyl-2-(2-methylpyridin-4-yl)-1H-indol-5-yl)-1,3,4-oxadiazol-2-yl)methanone] | 283 | 6 | 194
COc1ccc(-c2[nH]c3ccc(-c4nnc(C(=O)N5CC6CNCC6C5)o4)cc3c2C(C)C)cc1OC (stereo not drawn) [Example 61, (5-(2-(3,4-dimethoxyphenyl)-3-isopropyl-1H-indol-5-yl)-1,3,4-oxadiazol-2-yl)(hexahydropyrrolo[3,4-c]pyrrol-2(1H)-yl)methanone] | 454 | 6.9 | 51

Results, then the compound that gave them:

IC50 (human TLR9) [nM] | IC50 (human TLR8) [nM] | IC50 (human TLR7) [nM] | SMILES
> 50000 | 173 | 749 | CCc1c(-c2ccc(OC)c(OC)c2)[nH]c2ccc(-c3nnc(C(N)=O)o3)cc12 [Example 41, 5-(2-(3,4-dimethoxyphenyl)-3-ethyl-1H-indol-5-yl)-1,3,4-oxadiazole-2-carboxamide]
12100 | 14 | 266 | COc1ccc(-c2[nH]c3ccc(-c4nnc(CN(C)C)o4)cc3c2C(C)C)cc1OC [Example 44, 1-(5-(2-(3,4-dimethoxyphenyl)-3-isopropyl-1H-indol-5-yl)-1,3,4-oxadiazol-2-yl)-N,N-dimethylmethanamine]
1080 | 6.2 | 39 | COc1ccc(-c2[nH]c3ccc(-c4nnc(C5CCCN(C)C5)o4)cc3c2C(C)C)cc1OC (stereo not drawn) [Example 46, 2-(2-(3,4-dimethoxyphenyl)-3-isopropyl-1H-indol-5-yl)-5-(1-methylpiperidin-3-yl)-1,3,4-oxadiazole]
19100 | 82 | 194 | COc1ccc(-c2[nH]c3ccc(-c4nnc(CCn5ccnc5)o4)cc3c2C(C)C)cc1OC [Example 47, 2-(2-(1H-imidazol-1-yl)ethyl)-5-(2-(3,4-dimethoxyphenyl)-3-isopropyl-1H-indol-5-yl)-1,3,4-oxadiazole]
1080 | 5.9 | 44 | COc1ccc(-c2[nH]c3ccc(-c4nnc(C[C@@H]5CCCCN5)o4)cc3c2C(C)C)cc1OC [Example 50, (S)-2-(2-(3,4-dimethoxyphenyl)-3-isopropyl-1H-indol-5-yl)-5-(piperidin-2-ylmethyl)-1,3,4-oxadiazole]
706 | 3.9 | 75 | COc1ccc(-c2[nH]c3ccc(-c4nnc(C[C@H]5CCCCN5)o4)cc3c2C(C)C)cc1OC [Example 54, (R)-2-(2-(3,4-dimethoxyphenyl)-3-isopropyl-1H-indol-5-yl)-5-(piperidin-2-ylmethyl)-1,3,4-oxadiazole]
1260 | 8.2 | 32 | COc1ccc(-c2[nH]c3ccc(-c4nnc([C@@H]5CCCNC5)o4)cc3c2C(C)C)cc1OC [Example 55, (R)-2-(2-(3,4-dimethoxyphenyl)-3-isopropyl-1H-indol-5-yl)-5-(piperidin-3-yl)-1,3,4-oxadiazole]
1270 | 25 | 47 | COc1ccc(-c2[nH]c3ccc(-c4nnc([C@@H]5CCCNC5)o4)cc3c2CC(F)(F)F)cc1OC [Example 56, (R)-2-(2-(3,4-dimethoxyphenyl)-3-(2,2,2-trifluoroethyl)-1H-indol-5-yl)-5-(piperidin-3-yl)-1,3,4-oxadiazole]
743 | 2.2 | 31 | Cc1cc(-c2[nH]c3ccc(-c4nnc(C5CCN(C(=O)CN(C)C)CC5)o4)cc3c2C(C)C)ccn1 [Example 62, 2-(dimethylamino)-1-(4-(5-(3-isopropyl-2-(2-methylpyridin-4-yl)-1H-indol-5-yl)-1,3,4-oxadiazol-2-yl)piperidin-1-yl)ethan-1-one]
> 50000 | 235 | 483 | COc1ccc(-c2[nH]c3ccc(-c4nnc(C)o4)cc3c2C(C)C)cc1OC [Example 63, 2-(2-(3,4-dimethoxyphenyl)-3-isopropyl-1H-indol-5-yl)-5-methyl-1,3,4-oxadiazole]
